Where two headings read alike, the source gives them in different places. Marks after values point to notes of the source that are not given here.
Key:
A2780 cells [1] = assay: MTT cytotoxicity assay, A2780; assay type: cell-based, human
A2780cisR cells = assay: MTT cytotoxicity assay, A2780cisR; assay type: cell-based, human; conditions: for IC50: MTT assay, 72 h exposure, cisplatin-resistant A2780cisR, read-out: IC50 A2780cis; for RF (resistance factor): IC50(A2780cisR)/IC50(A2780)
HEK293 cells = assay: MTT cytotoxicity assay, HEK293; assay type: cell-based, human; conditions: for IC50: MTT assay, 72 h exposure, noncancerous cells; for SF (selectivity factor): IC50(HEK293)/IC50(A2780)
mouse R2 RNR protein = target: T1, mouse R2 RNR protein (Mus musculus, UniProt P11157); design: method as in PMID 21955844; conditions: mouse R2, after 5 min, same experimental conditions; cited from earlier work
T1 construct: made in house; host or cells: Escherichia coli
T1 sequence (P11157 1-390): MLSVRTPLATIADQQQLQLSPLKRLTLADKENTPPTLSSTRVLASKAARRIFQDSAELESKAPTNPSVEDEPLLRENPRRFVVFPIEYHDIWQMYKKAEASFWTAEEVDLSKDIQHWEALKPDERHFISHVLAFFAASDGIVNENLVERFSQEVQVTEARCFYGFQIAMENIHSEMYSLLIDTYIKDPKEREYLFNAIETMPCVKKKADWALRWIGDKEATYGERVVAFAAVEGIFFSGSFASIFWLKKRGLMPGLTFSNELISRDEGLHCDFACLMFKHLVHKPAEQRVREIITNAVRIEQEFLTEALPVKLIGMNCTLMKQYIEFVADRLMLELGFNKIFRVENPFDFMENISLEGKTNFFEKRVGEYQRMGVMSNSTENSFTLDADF

A2780 cells [2] = assay: Cellular accumulation of Cu by ICP-MS; assay type: cell-based, human; conditions: 24 h exposure
Source text: The ability of anticancer drugs to penetrate biological membranes, tissues, and barriers underlies their biological, pharmacokinetic, and metabolic properties. These properties can be predicted by calculating physicochemical characteristics of drug candidates using molecular descriptors.[30] […] The results are shown in Table S7 in the Supporting Information. On the basis of the calculated physicochemical parameters, we determined if novel compounds belonged to the drug-like chemical space, which is commonly defined by the well-known Lipinski rule, or to the known drug space (KDS), which includes all small compounds in medical use.[31] […] Following the calculations, we determined the lipophilicity of all compounds experimentally (log D7.4, Tables 1 and 2). It is known that cancer cells accumulate hydrophilic compounds to a smaller extent relative to hydrophobic compounds, thereby affecting their activity. […] As expected, proligands were more lipophilic than the corresponding Cu(II) species, which are positively charged at physiological pH (Figure 3b). […] The lipophilicity of 2–5 increased in the following order 4 < 2 < 3 < 5, and correlated well with their cytotoxicity in cancer cells, with the exception of 3. Subsequently, we determined the total cellular accumulation of Cu in A2780 cells by ICP–MS upon 24 h exposure to 1–6 in comparison with CuCl2 (Table 2). […] The accumulation increased in the order 6 < 1 < 3 < 4 < 2 < 5.
Cellular accumulation of 1–6 was determined in A2780 cells. Cells were seeded into Cellstar 6-well plates (Greiner Bio-one) at a density of 60 × 10^4 cells/well (2 mL per well). After the cells were allowed to resume exponential growth for 24 h, they were exposed to 1–6 at 1 μM for 24 h at 37 °C. The cells were washed twice with 1 mL of PBS and lysed with RIPA lysis buffer for 5–10 min at 4 °C. The cell lysates were scraped from the wells and transferred to separate 1.5 mL microtubes. The supernatant was then collected after centrifugation (13 000 rpm, 4 °C for 15 min) and total protein content of each sample was quantified via Bradford’s assay. Cell lysates were transferred to 2 mL glass vials and then digested with ultrapure 65% HNO3 at 100 °C for 24 h. The resulting solution was diluted to 1 mL (2–4% v/v HNO3) with ultrapure Milli-Q water. Cu content of each sample was quantified by ICP–MS. In was used as an internal standard. Cu and In were measured at m/z 64 and m/z 115, respectively. Metal standards for calibration curve (0, 0.5, 1, 2, 5, 10, 20, and 40 ppb) were freshly prepared before each measurement. All readings were made in triplicates in He mode. For temperature-dependent cellular accumulation experiments, A2780 cells were seeded into 35 n 10 mm tissue culture plates at a density of 60 0 10^4 cells/plate. After the cells were allowed to resume exponential growth for 24 h, they were exposed to 2 at 3 μM for 10, 30, 60, and 120 min at 37 and 4 °C. The subsequent analysis was performed as described above. For energy-dependent experiments, A2780 cells were seeded into 35 5 10 mm tissue culture plates at a density of 1 0 10^6 cells/plate. After the cells were allowed to resume exponential growth for 24 h, they were preincubated with oligomycin (5 μM) for 1 or 4 h or with cycloheximide (100 μM) for 4 h and further co-incubated with 3 μM of 2 at 37 °C. To induce total starvation, after the cells were allowed to resume exponential growth for 24 h, RPMI media was replaced with HBSS, and cells were preincubated in HBSS for 1 h and further incubated with 3 μM of 2 for 1 h at 37 °C. The subsequent analysis was performed as described above.

A2780 cells [3] = assay: Annexin V/PI apoptosis assay; assay type: cell-based, human; conditions: A2780, concentration corresponding to Cu content in 2 at 2IC50
Source text: To elucidate if observed cytotoxicity of new compounds described in this study was a result of apoptosis induction, we conducted Annexin V/PI apoptosis assay. In brief, fluorochrome-labeled Annexin V reagent is used for detection of membrane phosphatidylserine (PS), which translocates to the cellular surface from the inner side of plasma membrane in the event of early apoptosis. Simultaneously, PI is used for detection of later stages of apoptosis or necrosis, which are characterized by loss of membrane integrity and accumulation of PI inside the cells. […] Results are illustrated in Figure 9. Upon incubation of A2780 cells with increasing concentrations of HL^2 and 2, the dose-dependent increase of apoptotic cells was observed.
A2780 cells were seeded into Cellstar 12-well plates (Greiner Bio-One) at a density of 20 × 10^4 cells/well (1 mL per well). The cells were allowed to resume exponential growth for 24 h and subsequently they were exposed to HL^2 and 2 at different concentrations for 24 h. After the supernatant solution was collected in 1.5 mL microtubes, the cells were washed with 100 μL of trypsin, which was combined with the supernatant. Subsequently, cells were trypsinized with 200 μL of trypsin for 5 min at 37 °C, 5% CO2, washed with 200 μL of PBS, and combined with the supernatant. The cells were centrifuged at 2.5 × 10^3 rpm for 5 min and the pellets were washed once with PBS and resuspended in 500 μL of Annexin V binding buffer and stained with Annexin V-FITC and PI reagents. The fluorescence was immediately analyzed by flow cytometry. The resulting dot blots were acquired from 10 000 events and quantified using Flowjo software (Flowjo LLC, Ashland, OR, USA).

[4] = n-octanol/water distribution coefficient, shake-flask; assay type: physicochemical; conditions: n-octanol/buffered aqueous solution, pH 7.40, UV-vis
Description: The titrations were carried out under a nitrogen atmosphere.

[5] = system: Staphylococcus aureus CECT 86 (ATCC 12600); assay: MIC microdilution, S. aureus; assay type: cell-based; conditions: planktonic cells; for S. aureus MIC50: growth inhibited at 50%; for S. aureus MIC100: lowest concentration completely inhibiting growth
Description: (§1) Wild-type P. aeruginosa PAO1 strain CECT 4122 (ATCC 15692) and S. aureus CECT 86 (ATCC 12600) were obtained from the Spanish Type Culture Collection (CECT). All strains were routinely cultivated in TSB medium (Sharlab, Spain) at 37 °C. MIC assays were determined by the microdilution method using TSB broth following the method described by the Clinical and Laboratory standards Institute.[94] In brief, compounds were diluted in a 96-well microtiter plate (tissue culture-treated polystyrene; […]

[6] = system: Pseudomonas aeruginosa PAO1 CECT 4122 (ATCC 15692); assay: MIC microdilution, P. aeruginosa; assay type: cell-based; conditions: planktonic cells; for P. aeruginosa MIC50: growth inhibited at 50%; for P. aeruginosa MIC100: lowest concentration completely inhibiting growth
Description: as §1

Solubility in water = assay type: physicochemical; conditions: sterile water stock solutions
Description: Human ovarian carcinoma cells A2780 and A2780cisR and human embryonic kidney HEK293 were obtained from ATCC. A2780 and A2780cisR cells were cultured in RPMI 1640 medium containing 10% FBS. HEK293 were cultured in DMEM medium containing 10% FBS. All cells were grown in tissue culture 25 cm^2 flasks (BD Biosciences, Singapore) at 37 °C in a humidified atmosphere of 95% air and 5% CO2. All drug stock solutions were prepared in sterile water. The amount of Cu was determined by ICP–OES.

[7] = Cyclic voltammetry, redox potentials; assay type: physicochemical; conditions: first reduction step; for E1/2 Red1 (DMSO) vs NHE / E1/2 Red1 (MeOH) vs NHE: vs NHE (in brackets)
Description: To assess the redox properties of 1-6, detailed electrochemical and spectroscopic studies in various solvents were performed using cyclic voltammetry as well as EPR-spectroelectrochemistry. Additionally, the UV-vis spectra of 1-5 were measured (Figure S8). […] The second reduction step occurred at -1.8 V versus Fc^+/Fc (-1.16 V vs NHE) and was less reversible, indicating a ligand-based reduction. […] In aqueous solutions, the reduction potentials shifted to the less negative values, and reduction was less reversible as shown for 2 in Figure S10. […] Cyclic voltammetric experiments were performed as described previously.[46] The cyclic voltammograms were measured in the cathodic region in different solvents (DMSO, methanol, DMSO/H2O). The analytical purity grade LiClO4 (Sigma-Aldrich) and distilled and deionized water were used for preparation of 1 mM aqueous solutions of the investigated complexes 1-6. EPR spectra were recorded with the EMX plus. In situ UV-vis-NIR spectroelectrochemical measurements were performed on a spectrometer (Avantes, Model AvaSpec-2048x14-USB2 in the spectroelectrochemical cell kit ([…]3)) with the Pt-microstructured honeycomb working electrode, purchased from Pine Research Instrumentation. The cell was positioned in the CUV-UV Cuvette Holder (Ocean Optics) connected to the diode-array UV-vis-NIR spectrometer by optical fibers. UV-vis-NIR spectra were processed using the AvaSoft 7.7 software package. Halogen and deuterium lamps were used as light sources (Avantes, Model AvaLight-DH-S-BAL). The in situ EPR spectroelectrochemical experiments were carried out under an argon atmosphere in the EPR flat cell equipped with a large platinum mesh working electrode. The freshly prepared solutions were carefully purged with argon and the electrolytic cell was polarized in the galvanostatic mode directly in the cylindrical EPR cavity TM-110 (ER 4103 TM), and the EPR spectra were measured in situ.

Row | SMILES | SF (selectivity factor) (HEK293 cells) | IC50 (A2780 cells [1]; 72 h exposure) | RF (resistance factor) (A2780cisR cells) | IC50 (A2780cisR cells) | IC50 (HEK293 cells) | log D7.4 [4] | cellular accumulation A2780 (A2780 cells [2]; 1 μM) | S. aureus MIC50 [5] | S. aureus MIC100 [5] | P. aeruginosa MIC50 [6] | P. aeruginosa MIC100 [6] | solubility in water (Solubility in water) | E1/2 Red1 (DMSO) vs Fc+/Fc [7] | E1/2 Red1 (DMSO) vs NHE [7] | E1/2 Red1 (MeOH) vs Fc+/Fc [7] | E1/2 Red1 (MeOH) vs NHE [7] | other results
1 | NC(=S)N/N=C/c1ncccc1N [triapine, 3-amino-2-pyridinecarboxaldehyde TSC, reference compound] | 0.6 | – | – | – | – | – | – | – | – | – | – | – | – | – | – | – | IC50 (A2780 cells [1]; Homo sapiens, A2780, 72 h exposure): 670 ± 220 nM; IC50 (A2780cisR cells; Homo sapiens): 1100 ± 100 nM; IC50 (HEK293 cells; Homo sapiens, HEK293): 390 ± 50 nM; tyrosyl radical loss (mouse R2 RNR protein): 100%
2 | [Cl][Cu][Cl] [CuCl2, reference compound] | 2.3 | 83000 ± 12000 nM | 1.0 | 82000 ± 3000 nM | 187000 ± 37000 nM | – | – | – | – | – | – | – | – | – | – | – | cellular accumulation A2780 (A2780 cells [2]; 2.5 μM): 0.17 ± 0.05 ^f nmol Cu/mg protein; induction of apoptosis (A2780 cells [3]): no induction of apoptosis was detected
3 | NC(=NN=Cc1ccc(CN2CCOCC2)cn1)[S][Cu][Cl] [complex 1, [Cu(L^1)Cl]] | 7.3 | 2200 ± 100 nM | 5.9 | 13000 ± 4000 nM | 16000 ± 2000 nM | –0.81 ± 0.04 | 0.63 ± 0.09 nmol Cu/mg protein | 100 µg/mL | >500 µg/mL | NA (NA denotes no antibacterial activity detected (>500 μg/mL)) | NA (NA denotes no antibacterial activity detected (>500 μg/mL)) | ≤ 2000 µM | –0.81 V | –0.17 V | –0.57 V | +0.07 V | –
4 | [Cl][Cu][S]C(=NN=Cc1ccc(CN2CCOCC2)cn1)N1CCCC1 [complex 3, [Cu(L^3)Cl]] | 3.0 | 260 ± 20 nM | 2.3 | 600 ± 50 nM | 780 ± 200 nM | +0.86 ± 0.02 | 2.2 ± 0.6 nmol Cu/mg protein | 3 µg/mL | 10 µg/mL | 100 µg/mL | 400 µg/mL | 300 µM | –0.80 V | –0.16 V | –0.49 V | +0.15 V | –

— paper PMC6348444, “New Water-Soluble Copper(II) Complexes with Morpholine–Thiosemicarbazone Hybrids: Insights into the Anticancer and Antibacterial Mode of Action” (Journal of Medicinal Chemistry, 2018)
